Patent publication US20140044797A1, “PROSTACYCLIN AND ANALOGS THEREOF ADMINISTERED DURING SURGERY FOR PREVENTION AND TREATMENT OF CAPILLARY LEAKAGE” (Rigshospitalet, priority 2011, published 2014)

Assays:
[1] = in vivo; cited from earlier work
PAI-1 = assay: Plasma biomarker ELISA after Flolan infusion: PAI-1; assay type: in vivo, healthy individuals; conditions: 4 ng/kg/min i.v. for 2 h; 8 healthy volunteers; plasma 0-24 h
Description: (§1) Eight healthy volunteers were administered Flolane (Prostacyclin) intravenously at a dose of 4 ng/kg/min for 2 h. Blood samples were analyzed for plasma biomarkers indicative of endothelial cell (thrombomodulin, PAI-1) and glycocalyx (syndecan-1) activation and/or damage, cellular necrosis (histone-complexed DNA fragments, HMGB1) and anticoagulation (protein C, antithrombin, TFPI) at the following time points: Before the infusion (0 h), immediately after ceasing the infusion (2 h) and then 4 h, 5 h, 6 h, 8 h and 24 h after starting the infusion.
(§2) The concentration of the individual biomarkers in plasma was analyzed by commercially available ELISA kits according to the manufactures recommendations. Paired t-tests with p-values <0.05 were considered significant.

[2] = tested on: histone-complexed DNA fragments; assay: Plasma biomarker ELISA after Flolan infusion: histone-complexed DNA fragments; assay type: in vivo, healthy individuals; conditions: 4 ng/kg/min i.v. for 2 h; 8 healthy volunteers; plasma 0-24 h
Description: as §1, §2

syndecan-1 = assay: Plasma biomarker ELISA after Flolan infusion: syndecan-1; assay type: in vivo, healthy individuals; conditions: 4 ng/kg/min i.v. for 2 h; 8 healthy volunteers; plasma 0-24 h
Description: as §1, §2

[3] = infusion in doses below 2 ng/kg/minute; cited from earlier work
HMGB1 = assay: Plasma biomarker ELISA after Flolan infusion: HMGB1; assay type: in vivo, healthy individuals; conditions: 4 ng/kg/min i.v. for 2 h, 8 healthy volunteers
Description: as §1, §2

antithrombin = assay: Plasma biomarker ELISA after Flolan infusion: antithrombin; assay type: in vivo, healthy individuals; conditions: 4 ng/kg/min i.v. for 2 h; 8 healthy volunteers; plasma 0-24 h
Description: as §1, §2

[4] = epoprostenol sodium compared with iloprost; cited from earlier work
TFPI = assay: Plasma biomarker ELISA after Flolan infusion: TFPI; assay type: in vivo, healthy individuals; conditions: 4 ng/kg/min i.v. for 2 h; 8 healthy volunteers; plasma 0-24 h
Description: as §1, §2

blood coagulation = assay: Thrombelastography (TEG) of whole blood during Flolan infusion; assay type: in vivo, healthy humans; conditions: Flolan 4 ng/kg/min i.v. for 2 h; samples after 60 and 120 min infusion vs baseline; 6 healthy volunteers; kaolin
Description: The TEG analyzer uses a small whole blood sample in a rotating cup and a pin suspended in the blood by a torsion wire, which is monitored for motion. To speed up the clot formation, a standardized amount of an activator of coagulation (e.g. Kaolin, tissue factor) may be added to the cup just before the pin is placed in the cup. The torque of the rotating cup is transmitted to the immersed pin only after fibrin and/or fibrin-platelet bonding has linked the cup and pin together. The strength and rate of these bonds affect the magnitude of the pin motion such that strong clots move the pin directly in phase with cup motion. Thus, the TEG technology documents the interaction of platelets with the protein coagulation cascade from the time of placing the blood in the analyzer until initial fibrin formation, clot rate strengthening and fibrin-platelet bonding via GPIIb/IIIa, through eventual clot lysis. The TEG R parameter reflects the initiation phase, reaction time, from start of coagulation until the first fibrin band is formed; the Angle (α) represents the increase in clot strength, clot kinetics, correlating with the thrombin generation. The maximal amplitude (MA) parameter reflects maximal clot strength i.e. the maximal elastic modus of the clot.
Six healthy volunteers were administered Flolan (prostacyclin analog) intravenously at a dose of 4 ng/kg/min for 2 h. Blood samples for whole blood viscoelastical assay (Thrombelastography [TEG]) and whole blood platelet aggregation (Multiplate) was obtained before infusion of Flolan, after 60 min infusion of Flolan and after 120 min infusion of Flolan.
With regard to the TEG assay this was performed as recommended by the manufacturer and 340 μl are mixed with 20 μl CaCl 0.2 M (final concentration 11.1 mM in the cup) and kaolin at 37° C. after which the haemostatic activity was recorded as shown in WO 2010/075861.

Protein C = assay: Plasma biomarker ELISA after Flolan infusion: Protein C; assay type: in vivo, healthy individuals; conditions: 4 ng/kg/min i.v. for 2 h; 8 healthy volunteers; in the hours after ceasing the infusion
Description: as §1, §2

platelet aggregation = assay: Multiplate whole blood impedance aggregometry during Flolan infusion; assay type: in vivo, healthy humans; conditions: Flolan 4 ng/kg/min i.v. for 2 h; after 60 and 120 min infusion; any of the agonists investigated (ASPI, COL, TRAP, ADP); 6 volunteers
Description: Multiplate whole blood aggregometry is a platelet function test, (Multiplate®, Dynabyte Medical, Munich, Germany). […] The increase of impedance by the attachment of platelets onto the Multiplate sensors is transformed to arbitrary aggregation units (AU) and plotted against time. The aggregation can then be measured in AUC*min (area under the curve*min) determined by the plot of units against time. Additionally, the aggregation can also be expressed in units (U) (1 unit=10 AU*min). Multiplate thereby allows analyzing the effect of compounds on platelet aggregation. […] Blood samples for whole blood viscoelastical assay (Thrombelastography [TEG]) and whole blood platelet aggregation (Multiplate) was obtained before infusion of Flolan, after 60 min infusion of Flolan and after 120 min infusion of Flolan. Whole blood impedance aggregometry was analyzed by the Multiple Platelet function Analyzer (MultiPlate® analyzer). […]

thrombomodulin = assay: Plasma biomarker ELISA after Flolan infusion: thrombomodulin; assay type: in vivo, healthy individuals; conditions: 4 ng/kg/min i.v. for 2 h; 8 healthy volunteers; plasma 0-24 h; effect continuing several hours after ceasing infusion
Description: as §1, §2

CC#CCC(C)[C@H](O)/C=C/[C@@H]1[C@H]2c3cccc(CCCC(=O)O)c3O[C@H]2C[C@H]1O (mixture of isomers) [beraprost]
half time [1]: 35 to 40 min

CCCCC[C@H](O)/C=C/[C@@H]1[C@H]2C/C(=C/CCCC(=O)O)O[C@H]2C[C@H]1O [Flolan, epoprostenol sodium]
circulating level of PAI-1 (PAI-1): declined
cell necrosis biomarker histone-complexed DNA fragments [2]: did not influence
glycocalyx shedding (syndecan-1) (syndecan-1): did not induce or influence
duration of hypotensive episodes [3]: 1 to 2 h
side effects: bleeding tendency [3]: no bleeding tendency
side effects: hypotensive episodes [3]: a few self-limiting hypotensive episodes
HMGB1 at 5 h (HMGB1; 5 h after starting infusion, p=0.056): tendency towards a reduction
cell necrosis biomarker HMGB1 (HMGB1; plasma 0-24 h): did not influence
circulating level of antithrombin (antithrombin): decreased
relative potency [4]: equipotent
circulating level of TFPI (TFPI): did not induce or influence glycocalyx shedding (syndecan-1) (FIG. 6A) or affected the circulating level of TFPI
half time [1]: 0.5 to 3 min
TEG Angle vs baseline (blood coagulation): No significant difference
TEG MA vs baseline (blood coagulation): No significant difference
TEG R vs baseline (blood coagulation): No significant difference
circulating level of Protein C (Protein C): decreased
Multiplate values vs baseline (platelet aggregation): no significant difference
circulating level of thrombomodulin (thrombomodulin): marked decrease

CC#CCC(C)[C@H](O)/C=C/[C@@H]1[C@H]2C/C(=C/CCCC(=O)O)C[C@H]2C[C@H]1O (stereo partly shown) [iloprost]
relative potency [4]: equipotent
half time [1]: 20 to 30 min

CCCCC[C@H](O)CC[C@@H]1[C@H]2Cc3cccc(OCC(=O)O)c3C[C@H]2C[C@H]1O [treprostinil]
half time [1]: less than 4 hours
